Read-outs that look alike come from different tables or passages of the source.
Columns and labels:
rat mu-opioid receptor = molecular target: T1, rat mu-opioid receptor (Rattus norvegicus, UniProt P33535); assay: [3H]diprenorphine binding on transiently transfected HEK-293 cells, mu; conditions: for Ki: [3H]diprenorphine, HEK-293 cells, rat mu receptor, read-out: Ki μ
T1 construct: expressed in transfected cells; host or cells: HEK-293 (transient, calcium phosphate)
Experimental: (§1) Receptor Binding. HEK-293 in DMEM (Gibco, BRL) supplemented with 10% Bovine Calf Serum (Hyclone) and 1% penicillin/streptomycin (Gibco, BRL) were maintained at 37° C. and in 5% CO2. Cells were seeded at 16% for 24 hours prior to transfection. Fresh media was added 2 hours prior to transfection. Cells were transfected with plasmid DNA (20 μg/100 mm plate) of either wild type or mutant receptor cDNA using the calcium phosphate precipitation method, see Chen, C.; Okayama, H. High Efficiency Transformation of Mammalian Cells by Plasmid DNA. Mol. Cell. Bio. 1987, 7, 2745–2752. Media was changed 5 hours after transfection. Transfected cells were harvested 48–72 hours after transfection for binding studies.
(§2) Sixty to 72 hours after transfection, HEK cells were washed three times with 25 mM HEPES buffer (pH 7.4) and were resuspended with 8–12 mL of 25 mM HEPES/100 mm plate. Saturation binding assays were performed in triplicate. Nonselective binding was determined using 10 μM naltrexone. Assays were incubated at room temperature for 90 minutes in a total binding volume of 0.5 mL and were terminated by filtration through a Whatman GF/B filter that had been presoaked in 0.25% poly(ethyleneimine) immediately prior to filtration. Filters were washed three times with 4 mL of ice-cold 25 mM HEPES buffer, and scintillation counting was performed with a Beckman 3801 LS Scintillation Counter. Protein concentrations were determined by the method of Bradford, see Bradford, M. M. A Rapid and Selective Method for the Quantitation of Microgram Quantities of Protein utilizing the Principle of Protein-dye Binding. Anal. Biochem. 1976, 72, 248–254. Raw binding data was analyzed with RADLIG and LIGAND (G. A. McPherson, Biosoft, Cambridge, UK). Inhibition constants (Ki) were determined from IC50 values with the Cheng-Prusoff equation, see Cheng, Y. C.; Prusoff, W. H.; Relationship between the inhibition Constant (Ki) and the concentration of inhibitor which causes 50 per cent inhibition (I50) of an enzymatic reaction. Biochem. Pharmacol. 1973, 22, 3099–3108.
(§3) As summarized in Table 2, receptor binding was determined in triplicate using [^3H]diprenorphine on HEK-293 cells that were transiently transfected with plasmids encoding rat kappa-, rat mu-, or mouse delta-opioid receptors.

kappa opioid receptor = molecular target: T2, kappa opioid receptor (Cavia porcellus, UniProt P41144); assay: Antagonism of ethylketazocine (EK) in the electrically stimulated guinea-pig ileal longitudinal muscle (GPI) preparation; assay type: cell-based; conditions: for EK (κ) IC50 ratio: GPI, antagonist tested at 100 nM, mean (n)
T2 construct: tested on the electrically stimulated guinea-pig ileal longitudinal muscle (GPI); from tissue; host or cells: guinea-pig ileal longitudinal muscle
Experimental: (§4) Smooth Muscle Preparations. […] All of the compounds were tested on the electrically stimulated guinea-pig ileal longitudinal muscle (GPI), see Rang, H. P. Stimulant Actions of Volatile Anaesthetics on Smooth Muscle. Br. J. Pharmacol. 1964, 22, 356–365, and the mouse vas-deferens (MVD), see Henderson, G.; Hughes, J.; Kosterlitz, H. W. A New Example of a Morphine-Sensitive Neuroeffector Junction: Adrenergic Transmission in the Mouse vas Deferens. Br. J. Pharmacol. 1972, 46, 764–766, preparations for their agonist and antagonist activities as previously described, see (a) Portoghese, P. S.; Lipkowski, A. W.; Takemori, A. E. Binaltorphimine and Nor-binaltorphimine, Potent and Selective Kappa-Opioid Receptor Antagonists. Life Sci. 1987, 40, 1287–1292. (b) Portoghese, P. S.; Takemori, A. E. TENA. A Selective Kappa Opioid Receptor Antagonist. Life Sci. 1985, 36, 801–805. […] Morphine (M), (−)-ethylketazocine (EK), and [D-Ala^2,D-Leu^5]enkephalin (DADLE) were employed as mu, kappa and delta selective agonists, respectively. Morphine and EK were used in the GPI, and DADLE was employed in the MVD studies. Concentration-response curves were obtained in the absence (control) and presence of the antagonist in the same preparation. Antagonist potency is expressed as an IC50 ratio, that is the IC50 of the agonist in the presence of antagonist divided by the control IC50 of the agonist in the same preparation, and as a Ke value derived from the relationship, Ke=[antagonist]/[…].

[1] = molecular target: T3, rat kappa-opioid receptor (Rattus norvegicus, UniProt P34975); assay: [3H]diprenorphine binding on transiently transfected HEK-293 cells, kappa; conditions: for Ki: [3H]diprenorphine, HEK-293 cells, rat kappa receptor, read-out: Ki κ
T3 construct: expressed in transfected cells; host or cells: HEK-293 (transient, calcium phosphate)
Experimental: as §1, §2, §3

[2] = molecular target: T4, mouse delta-opioid receptor (Mus musculus, UniProt P32300); assay: [3H]diprenorphine binding on transiently transfected HEK-293 cells, delta; conditions: for Ki: [3H]diprenorphine, HEK-293 cells, mouse delta receptor, read-out: Ki δ; for binding to delta receptor (in words): cloned receptors, HEK-293
T4 construct: expressed in transfected cells; host or cells: HEK-293 (transient, calcium phosphate)
Experimental: as §1, §2
As summarized in Table 2, receptor binding was determined in triplicate using [^3H]diprenorphine on HEK-293 cells that were transiently transfected with plasmids encoding rat kappa-, rat mu-, or mouse delta-opioid receptors. […] The results are consistent with the kappa agonist selectivity of compound 4b observed in the GPI. […] Binding to mu receptors was uniformly low for all regioisomers.

delta opioid receptor = molecular target: T5, delta opioid receptor (Mus musculus, UniProt P32300); assay: Antagonism of DADLE in the mouse vas-deferens (MVD) preparation; assay type: cell-based; conditions: for DADLE (δ) IC50 ratio: MVD, antagonist tested at 100 nM, mean ± SEM (n); for delta opioid receptor antagonist activity (in words): smooth muscle preparations
T5 construct: and the mouse vas-deferens (MVD); from tissue; host or cells: mouse vas deferens
Experimental: as §4

mu opioid receptor = assay: Antagonism of morphine (M) in the electrically stimulated guinea-pig ileal longitudinal muscle (GPI) preparation; assay type: cell-based; conditions: for M (μ) IC50 ratio: GPI, antagonist tested at 100 nM, mean ± SEM (n); for mu opioid receptor antagonist activity (in words): smooth muscle preparations; for M (μ) Ke: GPI preparation, agonist morphine, Ke derived from IC50 ratio
Experimental: as §4

mouse vas-deferens (MVD) = assay: Agonist activity in the MVD assay; assay type: cell-based; conditions: at 1 μM
Experimental: as §4, with “Concentration-response curves were obtained in the absence (control) and presence of the antagonist in the same preparation.” left out

[3] = tested on: guinea-pig ileal longitudinal muscle (GPI); assay: Agonist activity in the GPI assay (concentration-response compared to morphine, reversal by antagonists); assay type: cell-based
Experimental: as §4

T4 sequence (P32300 whole entry): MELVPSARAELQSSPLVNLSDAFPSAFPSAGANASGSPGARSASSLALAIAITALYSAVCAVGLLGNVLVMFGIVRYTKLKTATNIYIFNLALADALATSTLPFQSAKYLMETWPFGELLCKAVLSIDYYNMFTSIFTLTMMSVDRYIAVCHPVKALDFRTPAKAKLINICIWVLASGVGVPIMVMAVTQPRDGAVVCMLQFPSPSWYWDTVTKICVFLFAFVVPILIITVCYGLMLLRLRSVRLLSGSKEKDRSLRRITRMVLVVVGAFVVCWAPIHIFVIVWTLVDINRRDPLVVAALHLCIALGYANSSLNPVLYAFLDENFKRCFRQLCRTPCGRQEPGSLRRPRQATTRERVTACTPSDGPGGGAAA
T5 sequence (P32300 whole entry): as above
T2 sequence (P41144 whole entry): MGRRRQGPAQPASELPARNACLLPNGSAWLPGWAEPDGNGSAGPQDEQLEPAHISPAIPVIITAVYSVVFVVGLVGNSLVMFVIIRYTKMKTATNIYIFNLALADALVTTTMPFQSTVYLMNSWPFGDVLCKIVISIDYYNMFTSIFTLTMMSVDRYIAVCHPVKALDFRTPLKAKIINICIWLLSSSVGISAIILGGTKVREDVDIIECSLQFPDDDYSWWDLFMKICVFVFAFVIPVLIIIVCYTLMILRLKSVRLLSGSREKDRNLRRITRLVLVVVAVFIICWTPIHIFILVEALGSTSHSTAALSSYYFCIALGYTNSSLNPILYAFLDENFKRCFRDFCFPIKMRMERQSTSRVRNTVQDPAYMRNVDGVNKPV
T3 sequence (P34975 whole entry): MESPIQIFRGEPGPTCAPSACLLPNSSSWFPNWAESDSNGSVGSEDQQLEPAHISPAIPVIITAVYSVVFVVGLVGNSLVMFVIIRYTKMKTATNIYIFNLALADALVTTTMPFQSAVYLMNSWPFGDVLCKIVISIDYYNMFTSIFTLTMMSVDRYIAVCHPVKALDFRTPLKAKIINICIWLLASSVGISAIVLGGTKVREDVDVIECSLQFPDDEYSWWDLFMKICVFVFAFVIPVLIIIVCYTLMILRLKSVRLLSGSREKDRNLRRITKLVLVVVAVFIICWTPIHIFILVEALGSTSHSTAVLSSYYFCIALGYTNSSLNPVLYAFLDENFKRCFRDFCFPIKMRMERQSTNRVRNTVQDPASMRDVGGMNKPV
T1 sequence (P33535 whole entry): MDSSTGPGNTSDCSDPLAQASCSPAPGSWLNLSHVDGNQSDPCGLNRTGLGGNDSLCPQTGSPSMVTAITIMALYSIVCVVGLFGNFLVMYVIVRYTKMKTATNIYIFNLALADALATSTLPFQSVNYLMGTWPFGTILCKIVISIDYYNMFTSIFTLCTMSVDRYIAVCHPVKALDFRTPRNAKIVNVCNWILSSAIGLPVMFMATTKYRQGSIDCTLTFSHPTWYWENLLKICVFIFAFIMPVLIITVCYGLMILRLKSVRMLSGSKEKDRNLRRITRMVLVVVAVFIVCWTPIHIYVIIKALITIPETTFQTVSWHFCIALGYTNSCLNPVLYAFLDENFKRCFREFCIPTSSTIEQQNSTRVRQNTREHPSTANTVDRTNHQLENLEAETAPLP

In the case of `N=C(N)Nc1ccc2[nH]c3c(c2c1)C[C@@]1(O)[C@H]2Cc4ccc(O)c5c4[C@@]1(CCN2CC1CC1)[C@H]3O5` [Compound 3, 5′-Guanidino-17-(cyclopropylmethyl)-6,7-didehydro-4,5α-epoxy-3,14-hydroxyindolo-[2′,3′:6,7]morphinian, reference compound], the Ki (rat mu-opioid receptor) is reported as 99.7 ± 8.7 nM, the Kb (kappa opioid receptor) is reported as 0.16 nM and the “kappa antagonist potency relative to norBNI 1” value (kappa opioid receptor; smooth muscle preparations) is reported as “approximately four-fold”. The “kappa opioid receptor antagonist activity (in words)” value (kappa opioid receptor; smooth muscle preparations) was “highly potent and selective kappa opioid receptor antagonist”, the Ki [1] was 0.14 ± 0.03 nM and the “affinity for the kappa receptor relative to mu and delta receptors” value ([1]; cloned receptors, HEK-293) was “greater than two orders of magnitude”. The Ki [2] was 24.8 ± 11.3 nM.

For `N=C(N)Nc1cccc2[nH]c3c(c12)C[C@@]1(O)[C@H]2Cc4ccc(O)c5c4[C@@]1(CCN2CC1CC1)[C@H]3O5` [Compound 4a, 4′-Guanidino-17-(cyclopropylmethyl)-6,7-didehydro-4,5α-epoxy-3,14-hydroxyindolo-[2′,3′:6,7]morphinian], the Kb (delta opioid receptor) was 263 nM, the “DADLE (δ) IC50 ratio” value (delta opioid receptor) was 1.4 (2) and the “delta opioid receptor antagonist activity (in words)” value (delta opioid receptor) was “virtually inactive”. The “binding to mu receptor (in words)” value (rat mu-opioid receptor; cloned receptors, HEK-293) was “eliminated binding”, the “M (μ) IC50 ratio” value (mu opioid receptor) was 0.34 (2) and the “mu opioid receptor antagonist activity (in words)” value (mu opioid receptor) was “virtually inactive”. The Kb (kappa opioid receptor) was 80 nM, the “EK (κ) IC50 ratio” value (kappa opioid receptor) was 2.3 (2) and the “kappa opioid receptor antagonist activity (in words)” value (kappa opioid receptor; smooth muscle preparations) was “virtually inactive”. For the same compound, the “binding to kappa receptor (in words)” value ([1]; cloned receptors, HEK-293) was “eliminated binding” and the “binding to delta receptor (in words)” value [2] was “eliminated binding”.

With `N=C(N)Nc1cccc2c3c([nH]c12)[C@@H]1Oc2c(O)ccc4c2[C@@]12CCN(CC1CC1)[C@H](C4)[C@]2(O)C3` [Compound 4c, 7′-Guanidino-17-(cyclopropylmethyl)-6,7-didehydro-4,5α-epoxy-3,14-hydroxyindolo-[2′,3′:6,7]morphinian] the Kb (delta opioid receptor) was 0.96 nM, the “DADLE (δ) IC50 ratio” value (delta opioid receptor) was 105 ± 30 (4) and the “delta opioid receptor antagonist activity (in words)” value (delta opioid receptor) was “potent delta opioid receptor antagonist”. The Ki (rat mu-opioid receptor) was 181 ± 20 nM, the “M (μ) Ke” value (mu opioid receptor) was 238 nM and the “M (μ) IC50 ratio” value (mu opioid receptor) was 1.4 ± 0.9 (3). The “mu opioid receptor antagonist activity (in words)” value (mu opioid receptor) was “inactive”, the Kb (kappa opioid receptor) was 100 nM and the “EK (κ) IC50 ratio” value (kappa opioid receptor) was 2.0 (2). The “kappa opioid receptor antagonist activity (in words)” value (kappa opioid receptor; smooth muscle preparations) was “inactive”, the Ki [1] was 69.1 ± 25 nM and the Ki [2] was 2.75 ± 0.48 nM. For the same compound, the “binding to delta receptor (in words)” value [2] was “delta selectivity”.

In the case of `Oc1ccc2c3c1O[C@H]1c4[nH]c5c(c4C[C@@]4(O)[C@@H](C2)N(CC2CC2)CC[C@]314)C[C@@]1(O)[C@H]2Cc3ccc(O)c4c3[C@@]1(CCN2CC1CC1)[C@H]5O4` [Compound 1, Norbinaltorphimine, reference compound], the “M (μ) Ke” value (mu opioid receptor) is reported as 12.5 nM and the Kb (kappa opioid receptor; GPI preparation, agonist ethylketazocine, Ke derived from IC50 ratio, read-out: EK (κ) Ke) is reported as 0.41 nM.

`N=C(N)Nc1ccc2c3c([nH]c2c1)[C@@H]1Oc2c(O)ccc4c2[C@@]12CCN(CC1CC1)[C@H](C4)[C@]2(O)C3` [Compound 4b, 6′-Guanidino-17-(cyclopropylmethyl)-6,7-didehydro-4,5α-epoxy-3,14-hydroxyindolo-[2′,3′:6,7]morphinian] was tested, and the Ki (rat mu-opioid receptor) was 81.8 ± 20.7 nM, the “agonist activity in MVD assay” value (mouse vas-deferens (MVD)) was “inactive as an agonist” and the Ki [1] was 1.15 ± 0.39 nM. For the same compound, the “affinity for kappa receptors relative to GNTI” value ([1]; cloned receptors, HEK-293) was “one-tenth”, the “binding to kappa receptor (in words)” value ([1]; cloned receptors, HEK-293) was “kappa-selective” and the “agonist potency relative to that of morphine” value ([3]; GPI assay, FIG. 5) was 51 fold. For the same compound, the “agonist activity and selectivity (in words)” value ([3]; GPI assay, with MVD results) was “kappa-selective agonist”, the “reversal of the agonist effect by naltrexone” value ([3]; GPI, naltrexone 500 nM) was “only partially reversed” and the “reversal of the agonist effect by norBNI” value ([3]; GPI, norBNI 20 nM) was “completely reversed”. For the same compound, the Ki [2] was 20.3 ± 6.7 nM.

Source: US7232829B2, “Therapeutic compounds and methods” (Regents of the University of Minnesota, priority 2001, dated 2007)
